This note sets out measurements from PMC6804997 (PLoS ONE, 2019).

One assay deals with HK-2 cells. The assay can be described thus: Western blot of myoglobin-stimulated HK-2 cells. It counts as cell-based, Human. The procedure:
Kidney tissue or cultured cell samples were sufficiently lysed in the mixture of RIPA buffer (50 mM Tris (pH7.4), 150 mM NaCl, 1% TritonX-100, 1% sodium deoxycholate, 0.1% SDS) containing 4% cocktail proteinase inhibitor (Roche, Switzerland) on ice. After centrifuged at 13,000 rpm for 15 min at 4°C, supernate of the homogenate were collected for protein quantification. Protein equivalent to 50 ug were loaded into 10–12% SDS-PAGE gels for electrophoretic separation, and then transferred to polyvinylidene difluoride (PVDF) membranes (0.2 μm, Bio-Rad Laboratories, Inc.). After protein blotting, membranes were blocks using 5% non-fat dried milk for 1h at room temperature, then probed with primary antibodies at 4°C overnight, and incubated with secondary antibodies for 1h at room temperature. […] Immunoblots were visualized with the Immobilon Western Chemiluminescent HRP Substrate (Millipore Corporation, Billerica, MA, United States) and measured with Bio-Rad Chemi Doc MP. […]

The subject of assay [1] is rhabdomyolysis-induced AKI in glycerol-injected mice. The assay is described as follows: Glycerol-induced rhabdomyolysis AKI mouse model with F7 pretreatment. The assay is classed as in vivo, C57BL/6 mice. How it is done:
After one week of adoption to the housing conditions, the mice were randomly divided into three groups (n = 8): control, glycerol, and glycerol+HDAC6 inhibitor (F7). For the latter two groups, a single intramuscular injection of 50% glycerol dissolved in 0.9% normal saline (10 μl/g) was divided between bilateral back limbs to induce rhabdomyolysis-induced AKI model. The mice in control group received the same dose of saline injection at the place of glycerol. Before glycerol injection, mice in pretreatment group were orally administrated with F7 (dissolved in DEG and diluted with 0.9% saline) at a dose of 40mg/kg/d (200 μl solution for 28g) for 3 days. For control and glycerol groups, mice were treated with the same dose of saline.
All the mice were euthanized via pentobarbital sodium injection (50 mg/kg, i.p.). Terminal blood samples were collected and serum samples were stored at -80°C. Kidney tissues were divided and respectively removed into 10% phosphate buffered formalin for histological staining, and into liquid nitrogen follows by storage at -80°C for further quantitative analysis and immunofluorescence staining.
The serum level of creatinine kinase (CK), blood urea (UREA) and serum creatinine (sCr) were tested using high performance liquid chromatography (HPLC) by Institute of Drug Clinical Trial and the GCP center of West China Hospital of Sichuan University.
Paraffin-embedded kidney tissue samples were cut into 4-um sections and stained with haematoxylin and erosin (H&E) and periodic acid-Schiff (PAS) staining. These sections were viewed using light microscopy at magnifications of ⊆200 and ⊆400 respectively, and semiquantitative estimation of renal tubular damage was performed on a scale from 0 to 4 to grade the percentage of injured/damaged renal tubules: 0 for 0%, 0.5% for <10%, 1 for 10–25%, 2 for 26–50%, 3 for 51–75% and 4 for 76–100%[22]. At least 10 areas were randomly selected in the cortex per slide.
Kidney tissue samples were mounted in O.C.T. compound medium (Tissue-Tek) for cryosectioning (4 μm). Sections were immediately fixed in 10% buffered formalin, washed, dehydrated and stored at -20°C. Before immunofluorescence staining, the tissue sections were rehydrated and blocked with 10% horse medium (diluted with PBS solution) for 1 hour at room temperature and incubated at 4°C overnight with indicated primary antibodies. Then sections were exposed to second antibodies labeled with Cy5 red or FITC green (Jackson ImmunoResearch Inc., West Grove, PA, United States). The nuclei were counterstained with DAPI (1:500, Life Technologies Corporation, OR, United States). The images were captured with AxioCam HRc digital camera (Carl Zeiss).
Kidney tissue or cultured cell samples were sufficiently lysed in the mixture of RIPA buffer (50 mM Tris (pH7.4), 150 mM NaCl, 1% TritonX-100, 1% sodium deoxycholate, 0.1% SDS) containing 4% cocktail proteinase inhibitor (Roche, Switzerland) on ice. After centrifuged at 13,000 rpm for 15 min at 4°C, supernate of the homogenate were collected for protein quantification. Protein equivalent to 50 ug were loaded into 10–12% SDS-PAGE gels for electrophoretic separation, and then transferred to polyvinylidene difluoride (PVDF) membranes (0.2 μm, Bio-Rad Laboratories, Inc.). After protein blotting, membranes were blocks using 5% non-fat dried milk for 1h at room temperature, then probed with primary antibodies at 4°C overnight, and incubated with secondary antibodies for 1h at room temperature. […]

[2] abbreviates: glycerol+F7 vs glycerol group, F7 40 mg/kg/d oral for 3 days.
The mark [3] stands for this setting: western blot, F7 40 mg/kg/d for 3 days.

For `Cc1nc(N(C)c2ccc(Oc3ccc(C(=O)NO)cn3)cc2)c2ccccc2n1` [F7, N-hydroxy-6-(4-(methyl(2-methylquinazolin-4-yl)amino)phenoxy)nicotinamide], in the assay on HK-2 cells, the “HDAC6 expression in vitro” value is “effectively inhibited” and the “inflammation in HK-2 cells (NF-κB pathway activation)” value is listed as “ameliorated”. In assay [1] (ELISA, F7 40 mg/kg/d for 3 days), the “IL-β and TNF-α in serum and kidney lysates” value is reported as “decreased”. Besides, in assay [1] (F7 40 mg/kg/d for 3 days), the “NGAL expression in tubules (immunofluorescence staining)” value is listed as “largely diminished”. For the same compound, the “pathological injuries (tubular damage, H&E and PAS staining)” value in assay [1] (F7 40 mg/kg/d oral for 3 days pretreatment) is “effectively alleviated”. Further, in assay [1] (glycerol+F7 group vs control, 24 hours after glycerol injection, F7 40 mg/kg/d oral for 3 days), the “Serum creatine kinase (CK)” value is on record as “markedly elevated”. In assay [1] (setting [2]), the “serum creatinine (sCr)” value is on record as “remarkably decreased” and the “serum urea (UREA)” value is given as “remarkably decreased”. The “NGAL mRNA expression and protein expression” value in assay [1] (real-time PCR and immunoblot, F7 40 mg/kg/d for 3 days) is on record as “markedly reduced”. In assay [1] (real-time PCR, F7 40 mg/kg/d for 3 days), the “mRNA level of IL-6 and TNF-α in kidney” value is on record as “significantly decreased”. In assay [1] (western blot and immunofluorescence, F7 40 mg/kg/d for 3 days), the “expression of HDAC6 in the damaged kidney” value is on record as “significantly inhibited”. In assay [1] (setting [3]), the “IκBα phosphorylation in kidney” value is “decreased”; the “NF-κB p65 phosphorylation in kidney” value is given as “effectively down-regulated”; the “acetylation of histone H3 and α-tubulin in kidney” value is listed as “enhanced”; the “p38 phosphorylation in kidney” value is recorded as “effectively inhibited”. In assay [1] (setting [3]), the “proinflammatory cytokines IL-6 and IL-β protein levels in kidney” value was “remarkably down-regulated”; the “total ERK1/2 expression in kidney” value is “effectively inhibited”. Moreover, the “ERK1/2 phosphorylation in kidney” value in assay [1] (western blot, F7 treatment group) is on record as “no significant ERK1/2 phosphorylation reduction”.
